Reference: patent publication US20040197338A1, “Respiratory syncytial virus” (priority 2001, published 2004)

Assay: Peptide solubility
Format: physicochemical
Settings: for solubility on resuspension: resuspended at 1 mg/ml, other peptides in water

Compound	solubility in water / PBS	solubility on resuspension
CC[C@H](C)[C@H](NC(=O)[C@H](CCC(N)=O)NC(=O)[C@@H](NC(=O)[C@H](CCC(=O)O)NC(=O)[C@@H](NC(=O)[C@@H](NC(=O)[C@H](CC(C)C)NC(=O)[C@H](CO)NC(=O)[C@H](C)NC(=O)[C@H](CC(C)C)NC(=O)[C@@H](NC(=O)[C@H](CC(C)C)NC(=O)[C@@H](NC(=O)[C@H](CCC(=O)O)NC(=O)[C@H](Cc1ccccc1)NC(=O)[C@H](CCCCN)NC(=O)[C@H](CCSC)NC(=O)[C@H](CCC(=O)O)NC(=O)[C@H](CCCCN)NC(=O)CN)C(C)C)[C@@H](C)O)[C@@H](C)O)[C@@H](C)O)[C@@H](C)CC)C(=O)O [N8]	solubility problems in water	required 10% (v/v) acetic acid for solubility
CC[C@H](C)[C@H](NC(=O)CN)C(=O)N[C@@H](Cc1ccccc1)C(=O)N[C@@H](C)C(=O)NCC(=O)N[C@@H](CC(C)C)C(=O)N[C@@H](Cc1ccccc1)C(=O)N[C@@H](CCSC)C(=O)N[C@@H](CC(N)=O)C(=O)N[C@@H](C)C(=O)N[C@@H](Cc1ccc(O)cc1)C(=O)NCC(=O)N[C@@H](C)C(=O)NCC(=O)N[C@@H](CCC(N)=O)C(=O)N[C@H](C(=O)N[C@@H](CCSC)C(=O)N[C@@H](CC(C)C)C(=O)N[C@@H](CCCNC(=N)N)C(=O)N[C@@H](Cc1c[nH]c2ccccc12)C(=O)O)C(C)C [N17]	solubility problems in water	required 10% (v/v) acetic acid for solubility
CC[C@H](C)[C@H](NC(=O)[C@H](CC(C)C)NC(=O)CNC(=O)[C@@H](NC(=O)[C@H](Cc1ccccc1)NC(=O)[C@H](CCCCN)NC(=O)[C@H](Cc1c[nH]cn1)NC(=O)[C@H](CC(N)=O)NC(=O)[C@H](C)NC(=O)[C@H](CC(=O)O)NC(=O)[C@H](CCC(=O)O)NC(=O)[C@@H](NC(=O)[C@@H](NC(=O)[C@H](CC(C)C)NC(=O)[C@H](CC(C)C)NC(=O)[C@H](CCSC)NC(=O)CNC(=O)[C@H](CS)NC(=O)[C@H](CC(C)C)NC(=O)[C@@H](N)CCCCN)[C@@H](C)CC)[C@@H](C)O)[C@@H](C)O)C(=O)O [peptide N4]	soluble in PBS	
